Where a SMILES comes first, the peptide text is derived from it. [ ]: non-standard residue; d: D form. The star is where a group is joined. NH(CH2)3NH(1-anthraquinonyl) = O=C1c2ccccc2C(=O)c2c(NCCCN*)cccc21; Nle = CCCC[C@H](N)C(=O)O; Nva = CCC[C@H](N)C(=O)O; Mob = COc1ccc(C*)cc1
Compound	melting point
CC(C)C[C@H](NC(=O)[C@H](C)N)C(=O)NCC(=O)N[C@@H](CC(C)C)C(=O)N1CCC[C@@H]1C(=O)NCCCNc1cccc2c1C(=O)c1ccccc1C2=O.O=C(O)C(F)(F)F	168 °C
NCCCNc1cccc2c1C(=O)c1ccccc1C2=O	196 °C
CCCC[C@H](NC(=O)[C@H](C)NC(=O)[C@H](C)NC(=O)[C@@H](C)N)C(=O)NCC(=O)N[C@@H](CC(C)C)C(=O)N1CCC[C@H]1C(=O)NCCCNc1cccc2c1C(=O)c1ccccc1C2=O.O=C(O)C(F)(F)F	192 °C
CSC[C@H](NC(=O)[C@H](C)NC(=O)[C@H](C)NC(=O)[C@@H](C)N)C(=O)NCC(=O)N[C@@H](CC(C)C)C(=O)N1CCC[C@H]1C(=O)NCCCNc1cccc2c1C(=O)c1ccccc1C2=O.O=C(O)C(F)(F)F	191 °C
CC(C)C[C@H](NC(=O)[C@H](Cc1ccc(O)cc1)NC(=O)[C@H](C)NC(=O)[C@@H](C)N)C(=O)NCC(=O)N[C@@H](CC(C)C)C(=O)N1CCC[C@H]1C(=O)NCCCNc1cccc2c1C(=O)c1ccccc1C2=O.O=C(O)C(F)(F)F	190 to 194 °C
CCC[C@H](NC(=O)[C@H](C)NC(=O)[C@@H](C)N)C(=O)N[C@@H](CC(C)C)C(=O)NCC(=O)N[C@@H](CC(C)C)C(=O)N1CCC[C@H]1C(=O)NCCCNc1cccc2c1C(=O)c1ccccc1C2=O.O=C(O)C(F)(F)F	174 to 178 °C
CC(C)C[C@H](NC(=O)[C@H](C)NC(=O)[C@H](C)NC(=O)[C@H](N)CCCCN)C(=O)NCC(=O)N[C@@H](CC(C)C)C(=O)N1CCC[C@H]1C(=O)NCCCNc1cccc2c1C(=O)c1ccccc1C2=O.O=C(O)C(F)(F)F.O=C(O)C(F)(F)F	196 °C
CCC[C@H](NC(=O)[C@H](Cc1ccc(O)cc1)NC(=O)[C@H](C)NC(=O)[C@@H](C)N)C(=O)NCC(=O)N[C@@H](CC(C)C)C(=O)N1CCC[C@H]1C(=O)NCCCNc1cccc2c1C(=O)c1ccccc1C2=O.O=C(O)C(F)(F)F	190 °C
CSC[C@H](NC(=O)[C@H](Cc1ccc(O)cc1)NC(=O)[C@H](C)NC(=O)[C@@H](C)N)C(=O)NCC(=O)N[C@@H](CC(C)C)C(=O)N1CCC[C@H]1C(=O)NCCCNc1cccc2c1C(=O)c1ccccc1C2=O.O=C(O)C(F)(F)F	195 °C
CCC[C@H](N)C(=O)N1CCC[C@H]1C(=O)NCCCNc1cccc2c1C(=O)c1ccccc1C2=O.O=C(O)C(F)(F)F	190 to 194 °C
CCC[C@H](NC(=O)CN)C(=O)N1CCC[C@H]1C(=O)NCCCNc1cccc2c1C(=O)c1ccccc1C2=O.O=C(O)C(F)(F)F	196 °C
CCC[C@H](NC(=O)CNC(=O)[C@H](CC(C)C)NC(=O)[C@H](C)NC(=O)[C@H](C)NC(=O)[C@@H](C)N)C(=O)N1CCC[C@H]1C(=O)NCCCNc1cccc2c1C(=O)c1ccccc1C2=O.O=C(O)C(F)(F)F	192 to 196 °C
CC(C)C[C@H](NC(=O)[C@H](C)N)C(=O)N1CCC[C@H]1C(=O)NCCCNc1cccc2c1C(=O)c1ccccc1C2=O.O=C(O)C(F)(F)F	170 to 174 °C
CC(C)C[C@H](NC(=O)CNC(=O)[C@H](C)NC(=O)[C@@H](C)N)C(=O)N[C@@H](C)C(=O)N[C@@H](CC(C)C)C(=O)N1CCC[C@H]1C(=O)NCCCNc1cccc2c1C(=O)c1ccccc1C2=O.O=C(O)C(F)(F)F	192 °C
CC(C)C[C@H](NC(=O)[C@@H](N)Cc1ccccc1)C(=O)N1CCC[C@H]1C(=O)NCCCNc1cccc2c1C(=O)c1ccccc1C2=O.O=C(O)C(F)(F)F	184 to 188 °C
CC(C)C[C@H](NC(=O)CNC(=O)[C@H](C)NC(=O)[C@@H](C)N)C(=O)N[C@@H](Cc1ccccc1)C(=O)N[C@@H](CC(C)C)C(=O)N1CCC[C@H]1C(=O)NCCCNc1cccc2c1C(=O)c1ccccc1C2=O.O=C(O)C(F)(F)F	190 to 194 °C
NCC(=O)N1CCC[C@H]1C(=O)NCCCNc1cccc2c1C(=O)c1ccccc1C2=O.O=C(O)C(F)(F)F	160 to 166 °C
CC(C)C[C@H](N)C(=O)NCC(=O)N1CCC[C@H]1C(=O)NCCCNc1cccc2c1C(=O)c1ccccc1C2=O.O=C(O)C(F)(F)F	172 to 174 °C
CC(C)C[C@H](NC(=O)[C@@H](N)Cc1ccccc1)C(=O)NCC(=O)N1CCC[C@H]1C(=O)NCCCNc1cccc2c1C(=O)c1ccccc1C2=O.O=C(O)C(F)(F)F	164 to 168 °C
CC(C)C[C@H](NC(=O)[C@H](Cc1ccccc1)NC(=O)CN)C(=O)NCC(=O)N1CCC[C@H]1C(=O)NCCCNc1cccc2c1C(=O)c1ccccc1C2=O.O=C(O)C(F)(F)F	157 °C
NCC(=O)N1CCC[C@@H]1C(=O)NCCCNc1cccc2c1C(=O)c1ccccc1C2=O.O=C(O)C(F)(F)F	156 to 162 °C

Compound	melting point
CC(C)C[C@H](N)C(=O)NCC(=O)N1CCC[C@@H]1C(=O)NCCCNc1cccc2c1C(=O)c1ccccc1C2=O.O=C(O)C(F)(F)F	174 to 178 °C
CC(C)C[C@H](NC(=O)[C@@H](N)Cc1ccccc1)C(=O)NCC(=O)N1CCC[C@@H]1C(=O)NCCCNc1cccc2c1C(=O)c1ccccc1C2=O.O=C(O)C(F)(F)F	170 °C
CC(C)C[C@H](NC(=O)[C@H](Cc1ccccc1)NC(=O)CN)C(=O)NCC(=O)N1CCC[C@@H]1C(=O)NCCCNc1cccc2c1C(=O)c1ccccc1C2=O.O=C(O)C(F)(F)F	154 to 156 °C
N[C@@H](Cc1ccccc1)C(=O)N1CCC[C@@H]1C(=O)NCCCNc1cccc2c1C(=O)c1ccccc1C2=O.O=C(O)C(F)(F)F	118 to 120 °C
NCC(=O)N[C@@H](Cc1ccccc1)C(=O)N1CCC[C@@H]1C(=O)NCCCNc1cccc2c1C(=O)c1ccccc1C2=O.O=C(O)C(F)(F)F	128 to 130 °C
CC[C@H](C)[C@H](N)C(=O)NCC(=O)N[C@@H](Cc1ccccc1)C(=O)N1CCC[C@@H]1C(=O)NCCCNc1cccc2c1C(=O)c1ccccc1C2=O.O=C(O)C(F)(F)F	120 to 126 °C
CC[C@H](C)[C@H](NC(=O)[C@@H](N)Cc1ccccc1)C(=O)NCC(=O)N[C@@H](Cc1ccccc1)C(=O)N1CCC[C@@H]1C(=O)NCCCNc1cccc2c1C(=O)c1ccccc1C2=O.O=C(O)C(F)(F)F	130 to 134 °C
CC[C@H](C)[C@H](NC(=O)[C@H](Cc1ccccc1)NC(=O)[C@@H](N)CC(C)C)C(=O)NCC(=O)N[C@@H](Cc1ccccc1)C(=O)N1CCC[C@@H]1C(=O)NCCCNc1cccc2c1C(=O)c1ccccc1C2=O.O=C(O)C(F)(F)F	168 to 170 °C
CC[C@H](C)[C@H](NC(=O)[C@H](Cc1ccccc1)NC(=O)[C@H](CC(C)C)NC(=O)[C@@H](C)N)C(=O)NCC(=O)N[C@@H](Cc1ccccc1)C(=O)N1CCC[C@@H]1C(=O)NCCCNc1cccc2c1C(=O)c1ccccc1C2=O.O=C(O)C(F)(F)F	144 to 146 °C
CSC[C@H](NC(=O)[C@H](C)NC(=O)[C@H](C)N)C(=O)NCC(=O)N[C@@H](CC(C)C)C(=O)N1CCC[C@H]1C(=O)NCCCNc1cccc2c1C(=O)c1ccccc1C2=O.O=C(O)C(F)(F)F (H-AAC(Me)GLP-{NH(CH2)3NH(1-anthraquinonyl)})	162 °C
COc1ccc(CSC[C@H](NC(=O)[C@H](C)NC(=O)[C@H](C)N)C(=O)NCC(=O)N[C@@H](CC(C)C)C(=O)N2CCC[C@H]2C(=O)NCCCNc2cccc3c2C(=O)c2ccccc2C3=O)cc1.O=C(O)C(F)(F)F (H-AAC(Mob)GLP-{NH(CH2)3NH(1-anthraquinonyl)})	182 °C
CCC[C@H](NC(=O)CNC(=O)[C@H](CC(C)C)NC(=O)[C@H](C)NC(=O)[C@H](C)N)C(=O)N1CCC[C@H]1C(=O)NCCCNc1cccc2c1C(=O)c1ccccc1C2=O.O=C(O)C(F)(F)F (H-AALG[Nva]P-{NH(CH2)3NH(1-anthraquinonyl)})	188 °C
CCCC[C@H](NC(=O)[C@H](C)NC(=O)[C@H](C)N)C(=O)NCC(=O)N[C@@H](CC(C)C)C(=O)N1CCC[C@H]1C(=O)NCCCNc1cccc2c1C(=O)c1ccccc1C2=O.O=C(O)C(F)(F)F (H-AA[Nle]GLP-{NH(CH2)3NH(1-anthraquinonyl)})	176 °C
CCC[C@H](NC(=O)[C@H](C)NC(=O)[C@H](C)N)C(=O)NCC(=O)N[C@@H](CC(C)C)C(=O)N1CCC[C@H]1C(=O)NCCCNc1cccc2c1C(=O)c1ccccc1C2=O.O=C(O)C(F)(F)F (H-AA[Nva]GLP-{NH(CH2)3NH(1-anthraquinonyl)})	197 °C
CC(C)C[C@H](NC(=O)CNC(=O)[C@H](C)N)C(=O)N[C@@H](C)C(=O)N[C@@H](CC(C)C)C(=O)N1CCC[C@H]1C(=O)NCCCNc1cccc2c1C(=O)c1ccccc1C2=O.O=C(O)C(F)(F)F (H-AGLALP-{NH(CH2)3NH(1-anthraquinonyl)})	185 °C
CC(C)C[C@H](NC(=O)CNC(=O)[C@H](C)N)C(=O)N[C@@H](Cc1ccccc1)C(=O)N[C@@H](CC(C)C)C(=O)N1CCC[C@H]1C(=O)NCCCNc1cccc2c1C(=O)c1ccccc1C2=O.O=C(O)C(F)(F)F (H-AGLFLP-{NH(CH2)3NH(1-anthraquinonyl)})	186 °C
CCC[C@H](NC(=O)CNC(=O)[C@H](CC(C)C)NC(=O)[C@H](C)N)C(=O)N1CCC[C@H]1C(=O)NCCCNc1cccc2c1C(=O)c1ccccc1C2=O.O=C(O)C(F)(F)F (H-ALG[Nva]P-{NH(CH2)3NH(1-anthraquinonyl)})	176 to 178 °C
CSC[C@H](NC(=O)[C@H](Cc1ccc(O)cc1)NC(=O)[C@H](C)N)C(=O)NCC(=O)N[C@@H](CC(C)C)C(=O)N1CCC[C@H]1C(=O)NCCCNc1cccc2c1C(=O)c1ccccc1C2=O.O=C(O)C(F)(F)F (H-AYC(Me)GLP-{NH(CH2)3NH(1-anthraquinonyl)})	166 to 170 °C
CC(C)C[C@H](NC(=O)[C@H](Cc1ccc(O)cc1)NC(=O)[C@H](C)N)C(=O)NCC(=O)N[C@@H](CC(C)C)C(=O)N1CCC[C@H]1C(=O)NCCCNc1cccc2c1C(=O)c1ccccc1C2=O.O=C(O)C(F)(F)F (H-AYLGLP-{NH(CH2)3NH(1-anthraquinonyl)})	182 °C
CCC[C@H](NC(=O)[C@H](Cc1ccc(O)cc1)NC(=O)[C@H](C)N)C(=O)NCC(=O)N[C@@H](CC(C)C)C(=O)N1CCC[C@H]1C(=O)NCCCNc1cccc2c1C(=O)c1ccccc1C2=O.O=C(O)C(F)(F)F (H-AY[Nva]GLP-{NH(CH2)3NH(1-anthraquinonyl)})	182 °C
CCCC[C@H](NC(=O)[C@H](C)N)C(=O)NCC(=O)N[C@@H](CC(C)C)C(=O)N1CCC[C@H]1C(=O)NCCCNc1cccc2c1C(=O)c1ccccc1C2=O.O=C(O)C(F)(F)F (H-A[Nle]GLP-{NH(CH2)3NH(1-anthraquinonyl)})	185 °C

Source: patent US20040248765A1, “Tumour targeting prodrugs activated by metallo matrixproteinases” (priority 2001, published 2004)
